Laboratory results published in patent US20010051652A1, “Method of treating paralysis of the extremities caused by cerebral infarction” (Ajinomoto Co., Inc., priority 1999, published 2001).

How the values were obtained:
[1] = cited from earlier work
[2] = test system: CAl hippocampal neurons; settings: intraperitoneally administered, especially prior to cerebral ischemia or during reperfusion; cited from earlier work
[3] = test system: male Wister rats; assay: Clockwise rotation after middle cerebral artery ischemia-reperfusion; assay type: in vivo, rat; settings: for Clockwise rotation, during ischemia (rats affected/total): baseline before melatonin administration
Excerpt: Eight to ten-week-old male Wister rats weighing of 250 to 300 g were used. Under halothane anesthesia, a 24 G (24 gauge) plug was inserted from a right external carotid artery of each rat so as to arrive to a starting site of its middle cerebral artery of the circle of Willis through its internal carotid artery. Immediately, the anesthesia was stopped, and the rat was dehypnotized. It was confirmed that the rat rotated clockwise, had ischemia, and had paralysis of its left upper limb. After one hour, the plug was removed from the rat under halothane anesthesia, and the blood flow was thereby reperfused. In the melatonin administration group, 1 ml of a physiological saline solution containing 6 mg/kg of melatonin was injected using a probe into the stomach of each rat each day for 10 days starting 24 hours after the reperfusion. In the control group, 1 ml of a physiological saline solution was similarly injected into each rat. After 19 days, the presence of adduction/pronation of the left upper limb and the clockwise rotation were determined for each rat. To assess the clockwise rotation, each rat was placed on a round plate 2 m in diameter for 5 minutes. If the rat had paralysis of the left upper limb, it rotated clockwise. In an experiment similar to that as described in Example 1, the adduction/pronation of the left upper limb and the clockwise rotation were determined 11 days after the ischemic incidence.

[4] = test system: male Wister rats; assay: Adduction/pronation of the left upper limb after middle cerebral artery ischemia-reperfusion; assay type: in vivo, rat; settings: for Adduction/pronation, during ischemia (rats affected/total): baseline before melatonin administration
Excerpt: Eight to ten-week-old male Wister rats weighing of 250 to 300 g were used. Under halothane anesthesia, a 24 G (24 gauge) plug was inserted from a right external carotid artery of each rat so as to arrive to a starting site of its middle cerebral artery of the circle of Willis through its internal carotid artery. Immediately, the anesthesia was stopped, and the rat was dehypnotized. It was confirmed that the rat rotated clockwise, had ischemia, and had paralysis of its left upper limb. After one hour, the plug was removed from the rat under halothane anesthesia, and the blood flow was thereby reperfused. In the melatonin administration group, 1 ml of a physiological saline solution containing 6 mg/kg of melatonin was injected using a probe into the stomach of each rat each day for 10 days starting 24 hours after the reperfusion. In the control group, 1 ml of a physiological saline solution was similarly injected into each rat. After 19 days, the presence of adduction/pronation of the left upper limb and the clockwise rotation were determined for each rat. To assess the adduction/pronation of the left upper limb, each rat was hung via its tail, and the movement of the left upper limb was observed. If the rat could not voluntarily move the left upper limb, and had paralysis of the left upper limb, the left upper limb was considered to show adduction/pronation. In an experiment similar to that as described in Example 1, the adduction/pronation of the left upper limb and the clockwise rotation were determined 11 days after the ischemic incidence.

[5] = test system: male Wister rats; assay: Area of the cerebral infarcted lesion; assay type: in vivo, rat; settings: Example 3; rats of Example 2, after 11 days; section showing maximum lesion
Protocol: Using the rats from the experiment of Example 2, the area of the cerebral infarcted lesion in each rat after 11 days was determined. The area of the cerebral infarcted lesion was determined by preparing a consecutive section of 50 μm from a cerebral infarcted region of about 3 mm and subjecting the section showing a maximum lesion to the NIH measurement program to determine the area of the maximum lesion.

[6] = Example 1, 6 mg/kg into the stomach each day for 10 days starting 24 hours after reperfusion
[7] = Example 2, experiment similar to Example 1

In the case of `COc1ccc2[nH]cc(CCNC(C)=O)c2c1` [Melatonin, N-[2-(5-methoxy-1H-indol-3-yl)ethyl]acetamide], the “passage into the brain” value ([1]; intravenously administered) is given as “pass into the brain”, the “passage through the blood-brain barrier” value ([1]; orally administered) is given as “passes through the blood-brain barrier” and the “protection of CAl hippocampal neurons against ischemic injury” value [2] is given as “protects CAl hippocampal neurons against ischemic injury”. For the same molecule, the “Clockwise rotation, 19 days after ischemia (rats affected/total)” value [3, 6] was 1/4, the “Clockwise rotation, during ischemia (rats affected/total)” value ([3]; Example 1) was 4/4 and the “Clockwise rotation, during ischemia (rats affected/total)” value ([3]; Example 2) was 7/7. For the same molecule, the “Clockwise rotation, 11 days after ischemia (rats affected/total)” value [3, 7] was 0/7, the “Adduction/pronation, 19 days after ischemia (rats affected/total)” value [4, 6] was 1/4 and the “Adduction/pronation, during ischemia (rats affected/total)” value ([4]; Example 1) was 4/4. The “Adduction/pronation, during ischemia (rats affected/total)” value ([4]; Example 2) was 7/7, the “Adduction/pronation, 11 days after ischemia (rats affected/total)” value [4, 7] was 3/7 and the “Area of the infarcted lesion, cerebral cortex” value [5] was 5.47 mm^2. For the same molecule, the “Area of the infarcted lesion, striatum” value [5] was 7.15 mm^2.
